Activity calls are given as the source filed them. No rule for the calls is given here.
System: CCRIS mutagenicity, Ames/micronucleus/aberration tests
Test: CCRIS mutagenicity studies
[1] = Test System: AMES SALMONELLA TYPHIMURIUM, Strain/Indicator: TA98, Metabolic Activation: HAMSTER, LIVER, S-9, AROCLOR 1254 (10%), Method: PREINCUBATION
[2] = Test System: AMES SALMONELLA TYPHIMURIUM, Strain/Indicator: TA98, Metabolic Activation: NONE, Method: PREINCUBATION
[3] = Test System: AMES SALMONELLA TYPHIMURIUM, Strain/Indicator: TA98, Metabolic Activation: RAT, LIVER, S-9, AROCLOR 1254 (10%), Method: PREINCUBATION
[4] = Test System: AMES SALMONELLA TYPHIMURIUM, Strain/Indicator: TA100, Metabolic Activation: HAMSTER, LIVER, S-9, AROCLOR 1254 (10%), Method: PREINCUBATION
[5] = Test System: AMES SALMONELLA TYPHIMURIUM, Strain/Indicator: TA100, Metabolic Activation: NONE, Method: PREINCUBATION
[6] = Test System: AMES SALMONELLA TYPHIMURIUM, Strain/Indicator: TA100, Metabolic Activation: RAT, LIVER, S-9, AROCLOR 1254 (10%), Method: PREINCUBATION
[7] = Test System: AMES SALMONELLA TYPHIMURIUM, Strain/Indicator: TA1535, Metabolic Activation: HAMSTER, LIVER, S-9, AROCLOR 1254 (10%), Method: PREINCUBATION
[8] = Test System: AMES SALMONELLA TYPHIMURIUM, Strain/Indicator: TA1535, Metabolic Activation: NONE, Method: PREINCUBATION
[9] = Test System: AMES SALMONELLA TYPHIMURIUM, Strain/Indicator: TA1535, Metabolic Activation: RAT, LIVER, S-9, AROCLOR 1254 (10%), Method: PREINCUBATION
[10] = Test System: AMES SALMONELLA TYPHIMURIUM, Strain/Indicator: TA1537, Metabolic Activation: HAMSTER, LIVER, S-9, AROCLOR 1254 (10%), Method: PREINCUBATION
[11] = Test System: AMES SALMONELLA TYPHIMURIUM, Strain/Indicator: TA1537, Metabolic Activation: NONE, Method: PREINCUBATION
[12] = Test System: AMES SALMONELLA TYPHIMURIUM, Strain/Indicator: TA1537, Metabolic Activation: RAT, LIVER, S-9, AROCLOR 1254 (10%), Method: PREINCUBATION
[13] = Test System: AMES SALMONELLA TYPHIMURIUM, Strain/Indicator: TA100, Metabolic Activation: NONE, Method: STANDARD PLATE
[14] = Test System: AMES SALMONELLA TYPHIMURIUM, Strain/Indicator: TA98, Metabolic Activation: RAT, LIVER, S-9, KANECHLOR 500, Method: PREINCUBATION
[15] = Test System: AMES SALMONELLA TYPHIMURIUM, Strain/Indicator: TA100, Metabolic Activation: RAT, LIVER, S-9, KANECHLOR 500, Method: PREINCUBATION

`CCCCCCCCCCCOC(=O)c1ccccc1C(=O)OCCCCCCCCCCC` was tested, and the mutagenic call [1] was “inactive; negative”, the mutagenic call [2] was “inactive; negative” and the mutagenic call [3] was “inactive; negative”. The mutagenic call [4] was “inactive; negative”, the mutagenic call [5] was “inactive; negative” and the mutagenic call [6] was “inactive; negative”. For the same molecule, the mutagenic call [7] was “inactive; negative”, the mutagenic call [8] was “inactive; negative” and the mutagenic call [9] was “inactive; negative”. For the same molecule, the mutagenic call [10] was “inactive; negative”, the mutagenic call [11] was “inactive; negative” and the mutagenic call [12] was “inactive; negative”. The mutagenic call (Test System: MOUSE LYMPHOMA, Strain/Indicator: L5178Y (TK+/TK-), Metabolic Activation: NONE, Method: SUSPENSION/PLATE) was “inactive; negative” and the mutagenic call (Test System: MOUSE LYMPHOMA, Strain/Indicator: L5178Y (TK+/TK-), Metabolic Activation: RAT LIVER S-9, Method: SUSPENSION/PLATE) was “inactive; negative”.
With `Nc1cccc(N)c1C(=O)O` the mutagenic call [2] was “inactive; negative”, the mutagenic call (Test System: AMES SALMONELLA TYPHIMURIUM, Strain/Indicator: TA98, Metabolic Activation: RAT, LIVER, S-9, PHENOBARBITAL AND 5,6-BENZOFLAVONE, Method: PREINCUBATION) was “active; positive” and the mutagenic call [5] was “inactive; negative”. The mutagenic call (Test System: AMES SALMONELLA TYPHIMURIUM, Strain/Indicator: TA100, Metabolic Activation: RAT, LIVER, S-9, PHENOBARBITAL AND 5,6-BENZOFLAVONE, Method: PREINCUBATION) was “inactive; negative”.
In the case of `CN1CCOCC1`, the mutagenic call [2] is reported as “inactive; negative”, the mutagenic call (Test System: AMES SALMONELLA TYPHIMURIUM, Strain/Indicator: TA98, Metabolic Activation: RAT, LIVER, S-9, PCB, Method: PREINCUBATION) is reported as “inactive; negative” and the mutagenic call [5] is reported as “inactive; negative”. The mutagenic call (Test System: AMES SALMONELLA TYPHIMURIUM, Strain/Indicator: TA100, Metabolic Activation: RAT, LIVER, S-9, PCB, Method: PREINCUBATION) was “inactive; negative”.
With `CCCCON(OC(C)=O)C(=O)c1ccc(C(C)(C)C)cc1` the mutagenic call [13] was “active; positive” and the mutagenic call (Test System: AMES SALMONELLA TYPHIMURIUM, Strain/Indicator: TA100, Metabolic Activation: RAT, S-9, AROCLOR, Method: STANDARD PLATE) was “active; positive”.
For `Cc1ccc(C)c([N+](=O)[O-])c1`, the mutagenic call [2] was “inactive; negative”, the mutagenic call [14] was “inactive; negative” and the mutagenic call [5] was “inactive; negative”. The mutagenic call [15] was “active; positive”.
For `Nc1ccc2snc(Cl)c2c1`, the mutagenic call [13] was “active; positive”.
With `CCn1c(N)nc2c3ncc(C)nc3ccc21` the mutagenic call (Test System: AMES SALMONELLA TYPHIMURIUM, Strain/Indicator: TA98, Metabolic Activation: RAT, LIVER, S-9, AROCLOR 1254, Method: PREINCUBATION) was “active; positive”.
In the case of `O=[N+]([O-])c1ccccc1CCl`, the mutagenic call [1] is reported as “inactive; negative”, the mutagenic call [3] is reported as “inactive; negative” and the mutagenic call [14] is reported as “active; positive”. The mutagenic call [4] was “active; positive”, the mutagenic call [5] was “active; positive” and the mutagenic call [6] was “active; positive”. For the same molecule, the mutagenic call [15] was “active; positive”, the mutagenic call [7] was “active; positive” and the mutagenic call [8] was “inactive; negative”. The mutagenic call [9] was “active; positive”, the mutagenic call [10] was “inactive; negative” and the mutagenic call [11] was “inactive; negative”. For the same molecule, the mutagenic call [12] was “inactive; negative” and the mutagenic call (Test System: AMES SALMONELLA TYPHIMURIUM, Strain/Indicator: TA1538, Metabolic Activation: NONE, Method: PREINCUBATION) was “inactive; negative”.
For `CC(C)CCOS(C)(=O)=O`, the mutagenic call (End Point: IN VITRO MICRONUCLEUS, Test System: MOUSE LYMPHOMA L5178Y CELLS, Metabolic Activation: NONE) was “active; positive”, the mutagenic call (End Point: IN VITRO MICRONUCLEUS, Test System: MOUSE LYMPHOMA L5178Y CELLS, Metabolic Activation: RAT, LIVER, S-9) was “inactive; negative” and the mutagenic call [13] was “active; positive”. For the same molecule, the mutagenic call (Test System: AMES SALMONELLA TYPHIMURIUM, Strain/Indicator: TA100, Metabolic Activation: RAT, LIVER, S-9, Method: STANDARD PLATE) was “active; positive”.

Reference: PubChem BioAssay AID1259407 (Chemical Carcinogenesis Research Information System (CCRIS), 2018)
